# Data as given in PMC3278463, “Quercetin-4′-O-β-D-glucopyranoside (QODG) Inhibits Angiogenesis by Suppressing VEGFR2-Mediated Signaling in Zebrafish and Endothelial Cells” (PLoS ONE, 2012).
# pIC50: −log10 of the molar value.
# Target: VEGFR2 (KDR/Flk-1) (Homo sapiens, UniProt P35968)
# Assay: ELISA-based in vitro VEGFR2 tyrosine kinase assay (HTScan VEGFR2 kinase assay kit)
# Format: biochemical
# Sequence of VEGFR2 (KDR/Flk-1) (P35968 20-1356): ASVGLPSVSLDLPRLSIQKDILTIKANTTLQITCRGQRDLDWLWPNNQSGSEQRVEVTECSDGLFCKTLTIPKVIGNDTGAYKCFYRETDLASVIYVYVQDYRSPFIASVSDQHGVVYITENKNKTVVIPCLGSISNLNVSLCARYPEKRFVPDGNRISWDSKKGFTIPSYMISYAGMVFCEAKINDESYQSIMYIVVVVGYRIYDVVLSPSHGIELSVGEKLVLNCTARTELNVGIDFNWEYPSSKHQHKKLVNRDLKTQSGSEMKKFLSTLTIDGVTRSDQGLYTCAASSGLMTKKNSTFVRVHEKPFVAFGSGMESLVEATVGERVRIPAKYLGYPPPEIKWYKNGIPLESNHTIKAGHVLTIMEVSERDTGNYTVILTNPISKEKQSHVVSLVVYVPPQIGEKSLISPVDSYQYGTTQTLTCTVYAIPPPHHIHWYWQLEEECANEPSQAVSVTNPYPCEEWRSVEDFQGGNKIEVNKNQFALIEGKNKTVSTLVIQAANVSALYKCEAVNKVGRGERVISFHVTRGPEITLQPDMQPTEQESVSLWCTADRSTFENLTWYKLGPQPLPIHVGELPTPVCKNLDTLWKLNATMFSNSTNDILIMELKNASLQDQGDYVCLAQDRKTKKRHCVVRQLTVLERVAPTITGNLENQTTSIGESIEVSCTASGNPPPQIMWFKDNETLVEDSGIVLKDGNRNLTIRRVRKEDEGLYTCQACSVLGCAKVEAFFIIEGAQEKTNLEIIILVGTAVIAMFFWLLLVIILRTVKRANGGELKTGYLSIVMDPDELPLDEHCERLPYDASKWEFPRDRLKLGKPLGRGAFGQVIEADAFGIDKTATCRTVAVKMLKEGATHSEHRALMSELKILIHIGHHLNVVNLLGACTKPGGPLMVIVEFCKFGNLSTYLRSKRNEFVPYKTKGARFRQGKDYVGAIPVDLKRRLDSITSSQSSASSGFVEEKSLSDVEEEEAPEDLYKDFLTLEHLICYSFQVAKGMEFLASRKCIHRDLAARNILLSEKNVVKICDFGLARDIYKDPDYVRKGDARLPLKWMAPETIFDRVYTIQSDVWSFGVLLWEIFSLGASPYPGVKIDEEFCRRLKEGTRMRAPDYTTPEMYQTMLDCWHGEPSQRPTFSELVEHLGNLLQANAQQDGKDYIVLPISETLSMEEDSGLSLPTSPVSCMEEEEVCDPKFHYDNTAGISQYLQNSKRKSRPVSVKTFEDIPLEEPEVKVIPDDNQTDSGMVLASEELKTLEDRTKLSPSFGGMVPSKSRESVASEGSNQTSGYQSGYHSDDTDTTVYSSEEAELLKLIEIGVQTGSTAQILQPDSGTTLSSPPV
compound,measurement,value
"O=c1c(O)c(-c2ccc(O[C@@H]3O[C@H](CO)[C@@H](O)[C@H](O)[C@H]3O)c(O)c2)oc2cc(O)cc(O)c12 [QODG, Quercetin-4′-O-β-D-glucopyranoside]",pIC50,7.70
